Data from patent US5750354A, “Lipoxin transport system and uses therefor” (priority 1994, dated 1998).
Values joined by “and” are separate entries in the source; they are usually repeats but may differ in a detail not shown here. Identical values can stand only once. “Also recorded” adds a separate entry of the source.

Assays:
[1] = target: T1, specific lipoxin receptors (Homo sapiens, UniProt P25090); experiment: [3H]LXA4 ligand binding to human neutrophils
T1 sequence (P25090 1-351): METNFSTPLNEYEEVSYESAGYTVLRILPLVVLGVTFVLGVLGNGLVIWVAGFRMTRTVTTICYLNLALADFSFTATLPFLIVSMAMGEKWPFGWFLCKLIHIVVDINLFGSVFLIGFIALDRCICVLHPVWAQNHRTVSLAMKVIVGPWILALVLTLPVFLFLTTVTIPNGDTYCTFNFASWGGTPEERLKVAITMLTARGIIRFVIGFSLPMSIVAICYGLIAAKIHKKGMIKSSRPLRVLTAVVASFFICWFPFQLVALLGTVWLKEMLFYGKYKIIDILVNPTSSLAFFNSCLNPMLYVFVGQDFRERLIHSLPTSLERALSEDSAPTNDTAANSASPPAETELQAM
Procedure: Influx rates were calculated by fitting the data points to a single exponential equation (Eq. 1). Results have been taken from three experiments based upon duplicate determinations. […] Specific binding was taken as the difference between total and non-specific binding. […] Results are from three separate experiments, each performed in triplicate.

lipoxin transport system [2] = experiment: Irreversible inhibition of [3H]LXA4 influx after pretreatment of neutrophils with sulfhydryl-reactive agents; type: cell-based, human
Cl-/HCO3- exchanger = settings: cited from earlier work
[3] = test system: H+ +lactate- cotransporter; settings: cited from earlier work
lipoxin transport system [4] = experiment: [3H]LXA4 influx into human neutrophils (unidirectional tracer flux)
neutrophils [5] = experiment: Phagocytosis of opsonized sheep red blood cells by neutrophils; type: cell-based, human; settings: for effect on neutrophil phagocytosis, phagocytic index: 100 nM or 1000 nM, pH 7.4, 37° C., 30 minutes
Procedure: Neutrophils were prepared as described in the general methodology and suspended at a concentration of 10×10^6 -15×10^6 cells/ml in Hepes Hanks buffer, pH 7.4, supplemented with 1 mg/ml BSA, 1 mg/ml glucose, 0.5 mM MgCl2 and 1.0 mM CaCl2 --2H2 O.
The sheep red blood cells (SRBCs) were prepared by washing the cells with 1× veronal-buffered saline (VBS), incubating the cells with a 1:500 dilution of rabbit anti-SRBC IgG antibody at 37° C. for 15 minutes, centrifuging the cells at 2000 rpm for 5 minutes at 4° C. and washing the cells twice with 1×VBS. SRBCs were resuspended at a final concentration of 10×10^8 cells/ml.
Each component was pipetted separately to the bottom of a 12×75 mm test tube to allow thorough mixing of the components.
To each 100 μl mixture was added 15 μl of opsonized SRBCs to start the phagocytosis reaction. The tubes were vortexed and placed in a 37° C. incubator for 30 minutes. After 30 minutes, the tubes were placed on ice to stop the reaction.
Non-phagocytosed SRBCs were lysed by adding 1.0 ml of 0.83% NH4 Cl to each tube, with shaking, and centrifuging the tubes quickly at 1500 rpm for 3 minutes. The supernatant was removed and the pellets were resuspended in 30 gl of PBS. The 30 μl solution was placed onto a polylysine-coated microscope slide and after 15 minutes the excess solution was removed from the slide. The cells on the slide were fixed with 1% glutaraldehyde for 5 minutes and then the excess glutaraldehyde was removed. The cells were stained with Giemsa Stain by immersing the slide in the stain for 25 minutes, rinsing the slide with water and allowing the slide to dry overnight.
The slides were examined with a light microscope at 100×power. SRBCs which were phagocytosed by neutrophils were visible as yellow cells within blue-stained neutrophils. The results for each reaction were expressed as a phagocytic index, representing the number of SRBCs phagocytosed per 100 neutrophils. […]

[6] = test system: retinoic acid-induced HL-60 cells; experiment: [3H]LXA4 uptake into retinoic acid-induced HL-60 cells; type: cell-based, human; settings: Medium, 5 nM, 1-30 min
Procedure: (§1) HL-60 Cells: HL-60 cells were seeded into RPMI medium supplemented with 100 U/ml penicillin, 100 μg/ml streptomycin, and 10% fetal calf serum (Hyclone, Logan, Utah) and grown at 37° C. in 250 ml flasks in a 5% CO2 /95% air atmosphere. Cells were induced to differentiate toward a neutrophil-like phenotype by exposure to 1 μM retinoic acid for 5 days.
(§2) Human red cells, lymphocytes, and platelets were isolated from peripheral blood as described under Methods. Undifferentiated HL-60 cells were grown in culture according to standard protocols. Differentiated HL-60 cells were obtained by exposing cells to 1 μM retinoic acid for 5 days in culture. After harvesting and isolation, all cells were kept in the standard medium for 1 hour at 37° C. prior to assay. […] Results represent the means±SEM of three-four separate experiments for each cell type.

protein kinase C (PKC) = settings: about 10 nM; cited from earlier work
[7] = test system: unstimulated human platelets; experiment: [3H]LXA4 uptake into platelets; type: cell-based; settings: Medium, 5 nM, 1-30 min
Procedure: Platelets: Platelets were purified to homogeneity from acid citrate dextrose-treated blood according to established protocols (Romano, M. and Serhan, C. N. (1992) Biochemistry 31:8269-8277).
as §2

[8] = test system: renal vasoconstrictor actions of LTD4; settings: prior exposure, nM; cited from earlier work
[9] = test system: myeloid bone marrow colony formation; settings: 10^-10 M range, with suboptimal GM-CSF; cited from earlier work
[10] = target: T1, specific lipoxin receptors; settings: 4° C.; cited from earlier work
asthmatic patients = settings: micromolar amounts via inhalation; cited from earlier work
human neutrophils = settings: not told
neutrophils [11] = settings: 37° C.; cited from earlier work
[12] = test system: unstimulated human erythrocytes; experiment: [3H]LXA4 uptake into erythrocytes; type: cell-based; settings: Medium, 5 nM, 1-30 min
Procedure: Red Blood Cells (RBC): RBC were obtained directly from the heparinized blood of normal human donors. During repeated (four) washing steps, the uppermost portion of the cell pellets was aspirated and discarded to remove residual minor contamination of buffy coat cells.
as §2

[13] = test system: polymorphonuclear leukocytes; settings: cited from earlier work
[14] = test system: unstimulated human lymphocytes; experiment: [3H]LXA4 uptake into lymphocytes; type: cell-based; settings: Medium, 5 nM, 1-30 min
Procedure: Lymphocvtes: The lymphocyte-rich interface layer was taken at the Ficoll-Hypaque gradient step of the neutrophil purification procedure. Platelets were removed by slow-speed centrifugation (see below) and contaminating monocytes and neutrophils by adherence to plastic Petri dishes for 1 hour at 37 ° C.
as §2

[15] = test system: undifferentiated HL-60 cells; experiment: [3H]LXA4 uptake into undifferentiated HL-60 cells; type: cell-based, human; settings: Medium, 5 nM, 1-30 min
Procedure: as §1, §2

[16] = cited from earlier work
[17] = test system: LTD4- and LTB4-mediated inflammation; settings: in vivo; cited from earlier work
[18] = test system: human mononuclear cell-colony formation; settings: cited from earlier work
[19] = nM levels; cited from earlier work
[20] = RP-HPLC analysis of LXA4 integrity after exposure to inhibitors; type: physicochemical; settings: 30 min of exposure
[21] = combined data: Control, 0.4 mM SITS, 1 mM probenecid, Na+-free medium, high K+ medium, 5 nM LXA4

O=C(O)c1cc[c]([Hg+])cc1.[OH-] [pHMB, p-hydroxymercuribenzoate]
effect on binding of lipoxin to specific receptors [1]: not inhibitable | % Inhibition of Transport (irreversible) (lipoxin transport system [2]): ~ 65% and 66 ± 4% | effect on Cl-/HCO3- exchange (Cl-/HCO3- exchanger): resistant

CCN1C(=O)C=CC1=O [NEM, N-ethylmaleimide]
effect on H+ +lactate- cotransport / lactic acid fluxes [3]: completely blocked | effect of SH-reactive compounds on [3H]LXA4 influx (lipoxin transport system [4]; 1 mM NEM, 0.4 mM iodoacetate): lacked efficacy; also recorded: do not inhibit

CCCCC[C@H](O)/C=C/C=C\C=C\C=C\[C@@H](O)[C@@H](O)CCCC(=O)O [LXA4, (5S,6R,15S)-trihydroxy-7,9,13-trans-11-cis-eicosatetraenoic acid]
effect on neutrophil phagocytosis, phagocytic index (neutrophils [5]): more effective at inhibiting phagocytosis than LXB4; also recorded: inhibit phagocytosis | pH-dependence of inhibition of neutrophil phagocytosis (neutrophils [5]; extracellular pH 6.4, 7.4, 8.4): increases as the extracellular pH is decreased | [3H]LXA4 Uptake Rate [6]: 0.73 ± 0.15 fmol/10^6 cells/min | effect on PKC activity (protein kinase C (PKC)): enhance | final [3H]LXA4 uptake (combined data) (lipoxin transport system [4]; [21]): 7.26±0.26 fmol/10^6 cells | initial [3H]LXA4 influx rate (combined data) (lipoxin transport system [4]; [21]): 0.57±0.09 fmol/10^6 cells/min | [3H]LXA4 Uptake Rate [7]: -0.0003 ± 0.0015 fmol/10^6 cells/min | [3H]LXA4 Binding, total ([1]; Medium, 0.3 nM [3H]LXA4, 4° C., 5 min, no unlabeled LXA4): 1.05 ± 0.03 fmol/10^6 cells | [3H]LXA4 Binding, non-specific ([1]; Medium, + unlabeled LXA4 0.3 μM): 0.40 ± 0.08 fmol/10^6 cells | specific binding as share of total binding ([1]; displaced by 1,000-fold excess unlabeled LXA4): ~ 70% | [3H]LXA4 Binding, non-specific ([1]; pHo 6.40, + unlabeled LXA4 0.3 μM): 0.39 ± 0.04 fmol/10^6 cells | [3H]LXA4 Binding, total ([1]; pHo 6.40, no unlabeled LXA4): 1.02 ± 0.09 fmol/10^6 cells | [3H]LXA4 Binding, non-specific ([1]; pHo 8.40, + unlabeled LXA4 0.3 μM): 0.42 ± 0.09 fmol/10^6 cells | [3H]LXA4 Binding, total ([1]; pHo 8.40, no unlabeled LXA4): 1.19 ± 0.12 fmol/10^6 cells | renal vasoconstriction by LTD4 [8]: blocks renal vasoconstrictor actions | cell proliferation / colony formation [9]: stimulates cell proliferation | binding sites [10]: ~ 1830 sites/cell | half-time for binding [10]: .15 s | bronchoconstriction (asthmatic patients): blocks bronchoconstriction | efflux final value (relative cell content) (human neutrophils): 0.54±0.03 | metabolic transformation in neutrophils (neutrophils [11]): not subject to metabolic transformation | [3H]LXA4 Uptake Rate [12]: 0.0014 ± 0.0006 fmol/10^6 cells/min | chemotaxis [13]: inhibits chemotaxis | [3H]LXA4 Uptake Rate [14]: 0.0019 ± 0.0048 fmol/10^6 cells/min | [3H]LXA4 Uptake Rate [15]: 0.11 ± 0.02 fmol/10^6 cells/min | pK' of the carboxylic acid moiety [16]: ~ 3.8 | leukotriene-mediated inflammation [17]: inhibits | mononuclear cell-colony formation [18]: stimulates | vasodilation [19]: elicit prompt vasodilation | integrity after exposure to DISA, PCP, UK-5099, and mersalyl [20]: preservation of the integrity

CCCCC[C@H](O)[C@H](O)/C=C/C=C/C=C\C=C\[C@@H](O)CCCC(=O)O [LXB4, lipoxin B4]
effect on neutrophil phagocytosis, phagocytic index (neutrophils [5]): inhibit phagocytosis | effect on PKC activity (protein kinase C (PKC)): enhance | vasodilation [19]: elicit prompt vasodilation
